CC(=O)[C@@]12O[C@@H]1C[C@H]1[C@@H]3CCC4=CC(=O)CC[C@]4(C)[C@H]3CC[C@@]12C
Settings | solubility (mole fraction)
in DMSO, 312.45 K | 0.00539
in DMSO, 315.5 K | 0.00572
in DMSO, 318.35 K | 0.00657
in DMSO, 322.35 K | 0.00756
in DMSO, 326.5 K | 0.0087
in DMSO, 328.65 K | 0.00937
in DMSO, 331.2 K | 0.0101
in DMSO, 334.9 K | 0.0115
in DMSO, 339.15 K | 0.0135
in DMSO, 343.95 K | 0.0161
in DMSO, 348.35 K | 0.0188
in DMSO, 353.45 K | 0.0223
in isopropanol, 296.65 K | 0.00307
in isopropanol, 299.55 K | 0.00341
in isopropanol, 303.25 K | 0.00405
in isopropanol, 306.35 K | 0.00486
in isopropanol, 311.75 K | 0.00598
in isopropanol, 314.8 K | 0.00689
in isopropanol, 317.85 K | 0.00752
in isopropanol, 322.95 K | 0.00992
in isopropanol, 325.6 K | 0.011
in isopropanol, 328.75 K | 0.0125
in isopropanol, 333.25 K | 0.0152
in isopropanol, 337.45 K | 0.0177
in n-butanol, 300.85 K | 0.00412
in n-butanol, 303.9 K | 0.00473
in n-butanol, 306.75 K | 0.00543
in n-butanol, 309.85 K | 0.00624
in n-butanol, 314.25 K | 0.00765
in n-butanol, 319.18 K | 0.00919
in n-butanol, 323.55 K | 0.0109
in n-butanol, 328.05 K | 0.0134
in n-butanol, 332.75 K | 0.0162
in n-butanol, 336.66 K | 0.019
in n-butanol, 340.3 K | 0.0219
in n-butanol, 343.5 K | 0.0244
in n-propanol, 299.15 K | 0.00349
in n-propanol, 304.05 K | 0.00459
in n-propanol, 307.5 K | 0.00524
in n-propanol, 311.55 K | 0.00623
in n-propanol, 313.7 K | 0.00684
in n-propanol, 316.25 K | 0.00769
in n-propanol, 320.65 K | 0.00908
in n-propanol, 324.25 K | 0.0105
in n-propanol, 328.25 K | 0.0122
in n-propanol, 332.05 K | 0.0143
in n-propanol, 335.25 K | 0.0165
in n-propanol, 340.6 K | 0.0203

CC(=O)[C@@]12O[C@@H]1C[C@H]1[C@@H]3CCC4=CC(=O)CC[C@]4(C)[C@H]3[C@H](O)C[C@@]12C
Settings | solubility (mole fraction)
in 1,4-dioxane, 298 K | 0.00293
in 1,4-dioxane, 302.75 K | 0.00353
in 1,4-dioxane, 306.39 K | 0.00408
in 1,4-dioxane, 310.55 K | 0.00447
in 1,4-dioxane, 314.75 K | 0.00518
in 1,4-dioxane, 317.25 K | 0.0055
in 1,4-dioxane, 320.35 K | 0.00605
in 1,4-dioxane, 325.05 K | 0.00687
in 1,4-dioxane, 328.55 K | 0.00765
in 1,4-dioxane, 332.05 K | 0.00845
in 1,4-dioxane, 335.35 K | 0.00932
in 1,4-dioxane, 340.15 K | 0.0105
in DMSO, 297.75 K | 0.00423
in DMSO, 301.3 K | 0.00515
in DMSO, 311.06 K | 0.00772
in DMSO, 315.15 K | 0.00843
in DMSO, 319.05 K | 0.00966
in DMSO, 324.25 K | 0.0112
in DMSO, 327.15 K | 0.0126
in DMSO, 329.55 K | 0.0141
in DMSO, 333.67 K | 0.016
in DMSO, 337.43 K | 0.0178
in DMSO, 340.25 K | 0.0196
in DMSO, 344.65 K | 0.0228
in isopropanol, 297.95 K | 0.000542
in isopropanol, 300.25 K | 0.000643
in isopropanol, 303.45 K | 0.000717
in isopropanol, 308.05 K | 0.000952
in isopropanol, 312.65 K | 0.00126
in isopropanol, 316.35 K | 0.00147
in isopropanol, 320.75 K | 0.0019
in isopropanol, 323.85 K | 0.00212
in isopropanol, 327.45 K | 0.00262
in isopropanol, 331.95 K | 0.00311
in isopropanol, 335.65 K | 0.00368
in isopropanol, 340.25 K | 0.00456
in n-butanol, 298.75 K | 0.000597
in n-butanol, 304.45 K | 0.000775
in n-butanol, 307.35 K | 0.000935
in n-butanol, 310.75 K | 0.00113
in n-butanol, 315.67 K | 0.00143
in n-butanol, 320.75 K | 0.00177
in n-butanol, 324.35 K | 0.00205
in n-butanol, 328.55 K | 0.00237
in n-butanol, 331.65 K | 0.00268
in n-butanol, 334.15 K | 0.00304
in n-butanol, 336.45 K | 0.00334
in n-butanol, 340.15 K | 0.00384
in n-propanol, 300.5 K | 0.000796
in n-propanol, 303.25 K | 0.000933
in n-propanol, 306.75 K | 0.00109
in n-propanol, 309.9 K | 0.00125
in n-propanol, 312.7 K | 0.00142
in n-propanol, 317.15 K | 0.00172
in n-propanol, 321.67 K | 0.00208
in n-propanol, 324.85 K | 0.00235
in n-propanol, 327.95 K | 0.0027
in n-propanol, 332.65 K | 0.00322
in n-propanol, 336.85 K | 0.00382
in n-propanol, 341.65 K | 0.00463
